In patent US10258603B2 (priority 2014, dated 2019):

target: T1, CECR2 (Homo sapiens, UniProt Q9BXF3); test: CECR2 TR-FRET Binding Assay; details: IC50 (uM)
T1 construct: 424-538 was cloned, expressed, and purified to homogeneity; Flag; made in house
Text: IC50 Measurements for Inhibitors Using CECR2 TR-FRET Binding Assay

T1 sequence (Q9BXF3 424-538 limits assumed): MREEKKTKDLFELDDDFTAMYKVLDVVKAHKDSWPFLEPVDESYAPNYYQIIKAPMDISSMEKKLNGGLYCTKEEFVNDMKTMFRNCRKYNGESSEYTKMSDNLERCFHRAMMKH

SMILES	IC50 [µM]
CC(c1ccccc1)N1CCC(N(C)C(=O)c2cn(C)c(=O)c3[nH]ccc23)CC1 (stereo not drawn) [Example 214]	0.66
C=CCn1cc(C(=O)N(C)C2CCN(c3cc(C)nc(C)n3)CC2)c2cc[nH]c2c1=O [Example 165, 6-allyl-N-[1-(2,6-dimethylpyrimidin-4-yl)-4-piperidyl]-N-methyl-7-oxo-1H-pyrrolo[2,3-c]pyridine-4-carboxamide]	0.087
C=CCn1cc(C(=O)N(C)C2CCN(c3cc(OC)ncn3)CC2)c2cc[nH]c2c1=O [Example 162, 6-allyl-N-[1-(6-methoxypyrimidin-4-yl)-4-piperidyl]-N-methyl-7-oxo-1H-pyrrolo[2,3-c]pyridine-4-carboxamide]	0.12

same assay, conditions: read-out: IC50

SMILES	IC50 [µM]
CC1CCN(C(=O)c2cn(C)c(=O)c3[nH]ccc23)CC1 [Example 65, 6-methyl-4-(4-methylpiperidine-1-carbonyl)-1H-pyrrolo[2,3-c]pyridin-7-one]	1.4
CN(C(=O)c1cn(C)c(=O)c2[nH]ccc12)C1CCN(CC2CC2)CC1 [Example 208]	1.2
CC(C)N1CCC(CCN(C)C(=O)c2cn(C)c(=O)c3[nH]ccc23)CC1 [Example 183]	0.49
C=CCn1cc(C(=O)N(C)C2CCC(C)(C)c3ccccc32)c2cc(C)[nH]c2c1=O (single isomer, unassigned) [Example 279]	0.012
C=CCn1cc(C(=O)N(C)C2CCN(c3cc(-c4ncccc4C)ncn3)CC2)c2cc(C)[nH]c2c1=O [Example 272]	0.035
Cn1cc(C(=O)N2CCC(C(C)(C)O)CC2)c2cc[nH]c2c1=O [Example 68, 4-[4-(1-hydroxy-1-methyl-ethyl)piperidine-1-carbonyl]-6-methyl-1H-pyrrolo[2,3-c]pyridin-7-one]	3
CN1CCN(C2CCN(C(=O)c3cn(C)c(=O)c4[nH]ccc34)CC2)CC1 [Example 61, 6-methyl-4-[4-(4-methylpiperazin-1-yl)piperidine-1-carbonyl]-1H-pyrrolo[2,3-c]pyridin-7-one]	1
Cn1cc(C(=O)N2CCC(Cc3ccc(F)cc3)CC2)c2cc[nH]c2c1=O [Example 69, 4-[4-[(4-fluorophenyl)methyl]piperidine-1-carbonyl]-6-methyl-1H-pyrrolo[2,3-c]pyridin-7-one]	0.45
CC1CCCCN1CCCNC(=O)c1cn(C)c(=O)c2[nH]ccc12 (stereo not drawn) [Example 29, 6-methyl-N-[3-(2-methyl-1-piperidyl)propyl]-7-oxo-1H-pyrrolo[2,3-c]pyridine-4-carboxamide]	1.8
CC1CCCN(C2CCN(C(=O)c3cn(C)c(=O)c4[nH]ccc34)CC2)C1 (stereo not drawn) [Example 67, 6-methyl-4-[4-(3-methyl-1-piperidyl)piperidine-1-carbonyl]-1H-pyrrolo[2,3-c]pyridin-7-one]	1.8
CN(CC1CCN(CC2CCCOC2)CC1)C(=O)c1cn(C)c(=O)c2[nH]ccc12 (stereo not drawn) [Example 230]	0.79
C=CCn1cc(C(=O)N(C)C2C3CN(c4ccncn4)CC32)c2cc[nH]c2c1=O (stereo not drawn) [Example 251]	6.2
CN(C(=O)c1cn(C)c(=O)c2[nH]ccc12)C1CCN(c2ncc(F)cn2)CC1 [Example 147, N-[1-(5-fluoropyrimidin-2-yl)-4-piperidyl]-N,6-dimethyl-7-oxo-1H-pyrrolo[2,3-c]pyridine-4-carboxamide]	0.51
C=CCn1cc(C(=O)N(C)C2CCCc3ccncc32)c2cc(C)[nH]c2c1=O (single isomer, unassigned) [Example 291]	0.14
Cc1cccc(N2CCC(N(C)C(=O)c3cn(C)c(=O)c4[nH]ccc34)CC2)c1 [Example 173, N,6-dimethyl-N-[1-(m-tolyl)-4-piperidyl]-7-oxo-1H-pyrrolo[2,3-c]pyridine-4-carboxamide]	0.99
CC1CCN(C2CCN(C(=O)c3cn(C)c(=O)c4[nH]ccc34)CC2)CC1 [Example 62, 6-methyl-4-[4-(4-methyl-1-piperidyl)piperidine-1-carbonyl]-1H-pyrrolo[2,3-c]pyridin-7-one]	1.5
CN(C(=O)c1cn(C)c(=O)c2[nH]ccc12)C1CCN(Cc2ccccc2Cl)CC1 [Example 223]	0.97
CN(CC1CCN(c2ccncn2)CC1)C(=O)c1cn(C)c(=O)c2[nH]ccc12 [Example 158, N,6-dimethyl-7-oxo-N-[(1-pyrimidin-4-yl-4-piperidyl)methyl]-1H-pyrrolo[2,3-c]pyridine-4-carboxamide]	0.79
CC(C)N1CCC(N(C(=O)c2cn(C)c(=O)c3[nH]ccc23)C2CC2)CC1 [Example 243]	2
C=CCn1cc(C(=O)N(C)C2CCCc3cc(OC)ccc32)c2cc(C)[nH]c2c1=O (single isomer, unassigned) [Example 282]	0.067
C=CCn1cc(C(=O)N(C)C2CCCc3cnccc32)c2cc(C)[nH]c2c1=O (stereo not drawn) [Example 283, 6-allyl-N,2-dimethyl-7-oxo-N-(5,6,7,8-tetrahydroisoquinolin-5-yl)-1H-pyrrolo[2,3-c]pyridine-4-carboxamide]	0.044
CN(CC1CCN(CC2CCC2)CC1)C(=O)c1cn(C)c(=O)c2[nH]ccc12 [Example 233]	0.77
CN(CC1CCN(C2CCC2)CC1)C(=O)c1cn(C)c(=O)c2[nH]ccc12 [Example 189]	1

SMILES	IC50 [µM]
CN(C(=O)c1cn(C)c(=O)c2[nH]ccc12)C1CCN(Cc2cccc(C#N)c2)CC1 [Example 220]	1.1
CCN(CC)C1CCN(C(=O)c2cn(C)c(=O)c3[nH]ccc23)CC1 [Example 79, 4-[4-(diethylamino)piperidine-1-carbonyl]-6-methyl-1H-pyrrolo[2,3-c]pyridin-7-one]	5.1
CN(C(=O)c1cn(C)c(=O)c2[nH]ccc12)C1CCN(c2cnccn2)CC1 [Example 143, N,6-dimethyl-7-oxo-N-(1-pyrazin-2-yl-4-piperidyl)-1H-pyrrolo[2,3-c]pyridine-4-carboxamide]	0.4
CN(C(=O)c1cn(C)c(=O)c2[nH]ccc12)C1CCN(CCC2CC2)CC1 [Example 226]	0.7
Cn1cc(C(=O)N2CCC(N3CCCCC3)CC2)c2cc[nH]c2c1=O [Example 59, 6-methyl-4-[4-(1-piperidyl)piperidine-1-carbonyl]-1H-pyrrolo[2,3-c]pyridin-7-one]	0.89
C=CCn1cc(C(=O)N(C)C2CCN(c3cc(-c4ccccn4)ncn3)CC2)c2cc(C)[nH]c2c1=O [Example 271, 6-allyl-N,2-dimethyl-7-oxo-N-[1-[6-(2-pyridyl)pyrimidin-4-yl]-4-piperidyl]-1H-pyrrolo[2,3-c]pyridine-4-carboxamide]	0.011
CC(CN(C)C)NC(=O)c1cn(C)c(=O)c2[nH]ccc12 (stereo not drawn) [Example 2, N-[2-(dimethylamino)-1-methyl-ethyl]-6-methyl-7-oxo-1H-pyrrolo[2,3-c]pyridine-4-carboxamide]	14
CC(C)N1CCC(CN(C)C(=O)c2cn(C)c(=O)c3[nH]ccc23)C1 (stereo not drawn) [Example 23, N-[(1-isopropylpyrrolidin-3-yl)methyl]-N,6-dimethyl-7-oxo-1H-pyrrolo[2,3-c]pyridine-4-carboxamide]	2.1
CN(C(=O)c1cn(C)c(=O)c2[nH]ccc12)C1CCN(Cc2ccc(C#N)cc2)CC1 [Example 213, N-[1-[(4-cyanophenyl)methyl]-4-piperidyl]-N,6-dimethyl-7-oxo-1H-pyrrolo[2,3-c]pyridine-4-carboxamide]	0.71
C=CCn1cc(C(=O)N(C)C2CCN(c3cc(C)nc(C4CC4)n3)CC2)c2cc[nH]c2c1=O [Example 168, 6-allyl-N-[1-(2-cyclopropyl-6-methyl-pyrimidin-4-yl)-4-piperidyl]-N-methyl-7-oxo-1H-pyrrolo[2,3-c]pyridine-4-carboxamide]	0.042
CCN(C(=O)c1cn(C)c(=O)c2[nH]ccc12)C1CCN(C(C)C)CC1 [Example 227]	2
Cc1cccc(NC(=O)c2cn(C)c(=O)c3[nH]ccc23)c1 [Example 80, 6-methyl-N-(m-tolyl)-7-oxo-1H-pyrrolo[2,3-c]pyridine-4-carboxamide]	0.51
CC(c1ccccc1)N1CCC(CN(C)C(=O)c2cn(C)c(=O)c3[nH]ccc23)CC1 (stereo not drawn) [Example 197]	0.73
CC(C)N1C2CCC1CC(N(C)C(=O)c1cn(C)c(=O)c3[nH]ccc13)C2 (stereo not drawn) [Example 242]	1.4
CCc1ccc(N2CCC(N(C)C(=O)c3cn(C)c(=O)c4[nH]ccc34)CC2)cc1 [Example 178, N-[1-(4-ethylphenyl)-4-piperidyl]-N,6-dimethyl-7-oxo-1H-pyrrolo[2,3-c]pyridine-4-carboxamide]	0.74
CN(C(=O)c1cn(C)c(=O)c2[nH]ccc12)C1CCN(CCc2ccccc2F)CC1 [Example 253]	0.98
Cn1cc(C(=O)N2CCC(CCc3ccncc3)CC2)c2cc[nH]c2c1=O [Example 76, 6-methyl-4-[4-[2-(4-pyridyl)ethyl]piperidine-1-carbonyl]-1H-pyrrolo[2,3-c]pyridin-7-one]	0.35
CC(C)N1CCC(C)(CNC(=O)c2cn(C)c(=O)c3[nH]ccc23)CC1 [Example 212, N-[(1-isopropyl-4-methyl-4-piperidyl)methyl]-6-methyl-7-oxo-1H-pyrrolo[2,3-c]pyridine-4-carboxamide]	1.7
Cn1cc(C(=O)NCCN2CCC(O)CC2)c2cc[nH]c2c1=O [Example 30, N-[2-(4-hydroxy-1-piperidyl)ethyl]-6-methyl-7-oxo-1H-pyrrolo[2,3-c]pyridine-4-carboxamide]	3.8
CN1CCC(CCN(C)C(=O)c2cn(C)c(=O)c3[nH]ccc23)CC1 [Example 181, N,6-dimethyl-N-[2-(1-methyl-4-piperidyl)ethyl]-7-oxo-1H-pyrrolo[2,3-c]pyridine-4-carboxamide]	0.73
C=CCn1cc(C(=O)N2CCN(c3ccc(F)cc3)CC2C(N)=O)c2cc(C)[nH]c2c1=O (single isomer, unassigned) [Example 273, 1-(6-allyl-2-methyl-7-oxo-6,7-dihydro-1H-pyrrolo[2,3-c]pyridine-4-carbonyl)-4-(4-fluorophenyl)piperazine-2-carboxamide]	4.9
CN(C(=O)c1cn(C)c(=O)c2[nH]ccc12)C1CCN(c2ncc(C#N)cn2)CC1 [Example 141, N-[1-(5-cyanopyrimidin-2-yl)-4-piperidyl]-N,6-dimethyl-7-oxo-1H-pyrrolo[2,3-c]pyridine-4-carboxamide]	0.39
